Measured values from paper PMC8632988, “Inhibition of SYK and cSrc kinases can protect bone and cartilage in preclinical models of osteoarthritis and rheumatoid arthritis” (Scientific Reports, 2021).
Read-outs that look alike come from different tables or passages of the source.

Legend:
Assay in all cases: Kinase selectivity profile assay
Format in all cases: biochemical
[1] = target: T1, ALK (Homo sapiens, UniProt Q9UM73); conditions: 500 nM; relative to DMSO; read-out: Residual enzymatic activity
T1 construct: purchased Reaction Biology Corporation
Outline: (§1)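 Radiometric kinase assay run by a standard protocol. Unbound phosphate was removed by washing filters in phosphoric acid, and product radioactivity gave percent remaining kinase activity versus DMSO vehicle reactions. Run in duplicate.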

[2] = target: T2, CDK2/Cyclin A1 (Homo sapiens, UniProt P24941); conditions: 500 nM; relative to DMSO; read-out: Residual enzymatic activity
T2 construct: purchased Reaction Biology Corporation
Outline: as §1

[3] = target: T3, CDK6/cyclin D3 (Homo sapiens, UniProt Q00534); conditions: 500 nM; relative to DMSO; read-out: Residual enzymatic activity
T3 construct: purchased Reaction Biology Corporation
T3 sequence (Q00534 whole entry): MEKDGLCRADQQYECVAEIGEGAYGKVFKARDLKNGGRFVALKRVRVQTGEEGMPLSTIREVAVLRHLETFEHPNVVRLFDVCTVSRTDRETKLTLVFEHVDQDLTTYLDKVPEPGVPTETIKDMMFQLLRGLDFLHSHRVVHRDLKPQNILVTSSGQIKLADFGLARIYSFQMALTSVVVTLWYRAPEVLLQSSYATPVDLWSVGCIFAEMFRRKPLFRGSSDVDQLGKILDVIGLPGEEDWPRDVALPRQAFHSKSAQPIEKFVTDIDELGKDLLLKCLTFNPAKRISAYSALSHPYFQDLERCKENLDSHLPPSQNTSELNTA
T3 sequence (P30281 whole entry partner): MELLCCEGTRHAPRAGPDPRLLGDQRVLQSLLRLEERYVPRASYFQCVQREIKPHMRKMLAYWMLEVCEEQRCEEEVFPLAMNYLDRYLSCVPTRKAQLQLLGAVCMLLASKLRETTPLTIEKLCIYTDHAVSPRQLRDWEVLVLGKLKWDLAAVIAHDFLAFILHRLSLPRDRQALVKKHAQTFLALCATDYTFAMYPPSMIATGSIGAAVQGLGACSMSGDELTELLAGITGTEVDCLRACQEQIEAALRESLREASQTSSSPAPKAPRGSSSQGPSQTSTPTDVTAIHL
Outline: as §1

[4] = target: T4, CK1epsilon (Homo sapiens, UniProt P49674); conditions: 500 nM; relative to DMSO; read-out: Residual enzymatic activity
T4 construct: purchased Reaction Biology Corporation
Outline: as §1

[5] = target: T5, CK2a2 (Homo sapiens, UniProt P19784); conditions: 500 nM; relative to DMSO; read-out: Residual enzymatic activity
T5 construct: purchased Reaction Biology Corporation
Outline: as §1

[6] = target: T6, DMPK2 (Homo sapiens, UniProt Q6DT37); conditions: read-out: Residual enzymatic activity
T6 construct: purchased Reaction Biology Corporation
Outline: as §1

[7] = target: T7, DRAK1/STK17A (Homo sapiens, UniProt Q9UEE5); conditions: 500 nM; relative to DMSO; read-out: Residual enzymatic activity
T7 construct: purchased Reaction Biology Corporation
Outline: as §1

[8] = target: T8, EPHA3 (Homo sapiens, UniProt P29320); conditions: 500 nM, relative to DMSO
T8 construct: purchased Reaction Biology Corporation
Outline: as §1

[9] = target: T9, ERK1 (Homo sapiens, UniProt P27361); conditions: 500 nM; relative to DMSO; read-out: Residual enzymatic activity
T9 construct: purchased Reaction Biology Corporation
Outline: as §1

[10] = target: T10, FER (Homo sapiens, UniProt P16591); conditions: 500 nM; relative to DMSO; read-out: Residual enzymatic activity
T10 construct: purchased Reaction Biology Corporation
Outline: as §1

[11] = target: T11, FLT4/VEGFR3 (Homo sapiens, UniProt P35916); conditions: for remaining activity at 0.5 µM: 500 nM, relative to DMSO, read-out: Residual enzymatic activity
T11 construct: purchased Reaction Biology Corporation (assay service)
T11 sequence (P35916 25-1363): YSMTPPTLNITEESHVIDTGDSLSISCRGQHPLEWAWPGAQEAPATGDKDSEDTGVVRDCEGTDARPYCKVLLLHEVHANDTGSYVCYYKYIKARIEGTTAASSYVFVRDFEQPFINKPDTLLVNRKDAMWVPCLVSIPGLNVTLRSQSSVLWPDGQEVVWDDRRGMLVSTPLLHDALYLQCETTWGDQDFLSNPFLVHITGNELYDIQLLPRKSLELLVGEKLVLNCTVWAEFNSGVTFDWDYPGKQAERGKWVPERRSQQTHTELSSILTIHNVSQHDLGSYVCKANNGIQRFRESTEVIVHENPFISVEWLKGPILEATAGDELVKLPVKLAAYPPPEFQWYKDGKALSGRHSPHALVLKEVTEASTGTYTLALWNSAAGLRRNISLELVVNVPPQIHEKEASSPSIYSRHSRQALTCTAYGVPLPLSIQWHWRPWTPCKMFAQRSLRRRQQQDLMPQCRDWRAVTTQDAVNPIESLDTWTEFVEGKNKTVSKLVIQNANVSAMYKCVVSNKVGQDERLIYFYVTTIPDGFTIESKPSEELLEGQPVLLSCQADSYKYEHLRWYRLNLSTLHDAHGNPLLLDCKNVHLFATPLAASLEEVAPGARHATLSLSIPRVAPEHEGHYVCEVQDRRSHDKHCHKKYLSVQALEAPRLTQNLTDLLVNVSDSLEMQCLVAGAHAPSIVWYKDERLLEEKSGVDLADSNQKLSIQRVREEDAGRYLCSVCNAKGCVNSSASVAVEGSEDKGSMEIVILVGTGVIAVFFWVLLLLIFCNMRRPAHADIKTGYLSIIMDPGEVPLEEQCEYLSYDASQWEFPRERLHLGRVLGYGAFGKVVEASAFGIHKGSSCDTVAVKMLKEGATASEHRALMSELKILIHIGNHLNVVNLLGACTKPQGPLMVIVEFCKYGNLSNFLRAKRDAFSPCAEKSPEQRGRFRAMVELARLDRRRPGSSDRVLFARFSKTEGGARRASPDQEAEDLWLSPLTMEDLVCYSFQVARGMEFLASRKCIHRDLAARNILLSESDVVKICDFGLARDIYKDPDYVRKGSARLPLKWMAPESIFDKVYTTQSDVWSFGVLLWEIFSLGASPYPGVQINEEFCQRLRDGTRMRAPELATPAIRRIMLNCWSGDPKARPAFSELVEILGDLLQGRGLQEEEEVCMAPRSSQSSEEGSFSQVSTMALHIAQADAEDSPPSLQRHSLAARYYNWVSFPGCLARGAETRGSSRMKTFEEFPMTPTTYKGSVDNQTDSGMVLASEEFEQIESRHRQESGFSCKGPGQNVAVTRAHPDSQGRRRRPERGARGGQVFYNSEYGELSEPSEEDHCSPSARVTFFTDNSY
Outline: as §1

[12] = target: T12, FRK/PTK5 (Homo sapiens, UniProt P42685); conditions: 500 nM, relative to DMSO; for remaining activity at 0.5 µM: read-out: Residual enzymatic activity
T12 construct: purchased Reaction Biology Corporation
T12 sequence (P42685 whole entry): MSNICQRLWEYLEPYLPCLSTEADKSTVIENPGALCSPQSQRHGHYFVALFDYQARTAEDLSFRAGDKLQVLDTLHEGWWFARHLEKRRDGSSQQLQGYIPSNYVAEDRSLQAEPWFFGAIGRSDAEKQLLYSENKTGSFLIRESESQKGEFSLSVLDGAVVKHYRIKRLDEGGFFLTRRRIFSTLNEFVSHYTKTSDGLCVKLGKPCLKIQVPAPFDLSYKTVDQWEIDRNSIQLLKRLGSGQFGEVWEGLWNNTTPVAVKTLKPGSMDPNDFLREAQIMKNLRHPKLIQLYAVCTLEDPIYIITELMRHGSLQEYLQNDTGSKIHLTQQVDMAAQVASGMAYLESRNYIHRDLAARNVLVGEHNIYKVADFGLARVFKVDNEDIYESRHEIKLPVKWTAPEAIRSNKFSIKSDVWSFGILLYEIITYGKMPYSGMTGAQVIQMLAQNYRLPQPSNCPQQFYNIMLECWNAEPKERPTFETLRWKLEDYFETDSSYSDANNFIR
Outline: as §1

[13] = target: T13, GRK5 (Homo sapiens, UniProt P34947); conditions: 500 nM; relative to DMSO; read-out: Residual enzymatic activity
T13 construct: purchased Reaction Biology Corporation
Outline: as §1

[14] = target: T14, GRK6 (Homo sapiens, UniProt P43250); conditions: 500 nM; relative to DMSO; read-out: Residual enzymatic activity
T14 construct: purchased Reaction Biology Corporation
Outline: as §1

[15] = target: T15, HCK (Homo sapiens, UniProt P08631); conditions: for remaining activity at 0.5 µM: 500 nM, relative to DMSO, read-out: Residual enzymatic activity
T15 construct: purchased Reaction Biology Corporation (assay service)
T15 sequence (P08631 whole entry): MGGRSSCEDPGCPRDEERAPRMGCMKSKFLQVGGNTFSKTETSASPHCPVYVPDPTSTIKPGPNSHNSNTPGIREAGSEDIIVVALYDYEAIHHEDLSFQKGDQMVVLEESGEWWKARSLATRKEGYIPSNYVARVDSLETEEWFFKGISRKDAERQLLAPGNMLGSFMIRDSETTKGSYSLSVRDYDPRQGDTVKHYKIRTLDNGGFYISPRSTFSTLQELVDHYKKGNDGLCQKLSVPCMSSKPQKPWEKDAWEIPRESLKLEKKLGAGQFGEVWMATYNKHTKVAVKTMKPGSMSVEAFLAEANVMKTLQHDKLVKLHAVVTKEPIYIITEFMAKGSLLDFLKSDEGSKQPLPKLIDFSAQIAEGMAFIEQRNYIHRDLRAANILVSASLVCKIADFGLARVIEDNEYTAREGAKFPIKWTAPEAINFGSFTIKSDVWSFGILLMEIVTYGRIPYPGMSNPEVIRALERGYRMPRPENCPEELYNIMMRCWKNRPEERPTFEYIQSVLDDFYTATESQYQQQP
Outline: as §1

[16] = target: T16, HIPK2 (Homo sapiens, UniProt Q9H2X6); conditions: 500 nM; relative to DMSO; read-out: Residual enzymatic activity
T16 construct: purchased Reaction Biology Corporation
Outline: as §1

[17] = target: T17, HIPK4 (Homo sapiens, UniProt Q8NE63); conditions: 500 nM; relative to DMSO; read-out: Residual enzymatic activity
T17 construct: purchased Reaction Biology Corporation
Outline: as §1

[18] = target: T18, LOK/STK10 (Homo sapiens, UniProt O94804); conditions: 500 nM; relative to DMSO; read-out: Residual enzymatic activity
T18 construct: purchased Reaction Biology Corporation
Outline: as §1

[19] = target: T19, MEKK2 (Homo sapiens, UniProt Q9Y2U5); conditions: 500 nM; relative to DMSO; read-out: Residual enzymatic activity
T19 construct: purchased Reaction Biology Corporation
Outline: as §1

[20] = target: T20, MNK1 (Homo sapiens, UniProt Q9BUB5); conditions: 500 nM; relative to DMSO; read-out: Residual enzymatic activity
T20 construct: purchased Reaction Biology Corporation
Outline: as §1

[21] = target: T21, MSK1/RPS6KA5 (Homo sapiens, UniProt O75582); conditions: 500 nM; relative to DMSO; read-out: Residual enzymatic activity
T21 construct: purchased Reaction Biology Corporation
Outline: as §1

[22] = target: T22, NEK7 (Homo sapiens, UniProt Q8TDX7); conditions: 500 nM; relative to DMSO; read-out: Residual enzymatic activity
T22 construct: purchased Reaction Biology Corporation
Outline: as §1

[23] = target: T23, PAK6 (Homo sapiens, UniProt Q9NQU5); conditions: 500 nM; relative to DMSO; read-out: Residual enzymatic activity
T23 construct: purchased Reaction Biology Corporation
Outline: as §1

[24] = target: T24, PDGFRa (Homo sapiens, UniProt P16234); conditions: for remaining activity at 0.5 µM: 500 nM, relative to DMSO, read-out: Residual enzymatic activity
T24 construct: purchased Reaction Biology Corporation (Malvern, PA, USA)
Outline: as §1

[25] = target: T25, PDGFRb (Homo sapiens, UniProt P09619); conditions: for remaining activity at 0.5 µM: 500 nM, relative to DMSO, read-out: Residual enzymatic activity
T25 construct: purchased Reaction Biology Corporation (Malvern, PA, USA)
T25 sequence (P09619 33-1106): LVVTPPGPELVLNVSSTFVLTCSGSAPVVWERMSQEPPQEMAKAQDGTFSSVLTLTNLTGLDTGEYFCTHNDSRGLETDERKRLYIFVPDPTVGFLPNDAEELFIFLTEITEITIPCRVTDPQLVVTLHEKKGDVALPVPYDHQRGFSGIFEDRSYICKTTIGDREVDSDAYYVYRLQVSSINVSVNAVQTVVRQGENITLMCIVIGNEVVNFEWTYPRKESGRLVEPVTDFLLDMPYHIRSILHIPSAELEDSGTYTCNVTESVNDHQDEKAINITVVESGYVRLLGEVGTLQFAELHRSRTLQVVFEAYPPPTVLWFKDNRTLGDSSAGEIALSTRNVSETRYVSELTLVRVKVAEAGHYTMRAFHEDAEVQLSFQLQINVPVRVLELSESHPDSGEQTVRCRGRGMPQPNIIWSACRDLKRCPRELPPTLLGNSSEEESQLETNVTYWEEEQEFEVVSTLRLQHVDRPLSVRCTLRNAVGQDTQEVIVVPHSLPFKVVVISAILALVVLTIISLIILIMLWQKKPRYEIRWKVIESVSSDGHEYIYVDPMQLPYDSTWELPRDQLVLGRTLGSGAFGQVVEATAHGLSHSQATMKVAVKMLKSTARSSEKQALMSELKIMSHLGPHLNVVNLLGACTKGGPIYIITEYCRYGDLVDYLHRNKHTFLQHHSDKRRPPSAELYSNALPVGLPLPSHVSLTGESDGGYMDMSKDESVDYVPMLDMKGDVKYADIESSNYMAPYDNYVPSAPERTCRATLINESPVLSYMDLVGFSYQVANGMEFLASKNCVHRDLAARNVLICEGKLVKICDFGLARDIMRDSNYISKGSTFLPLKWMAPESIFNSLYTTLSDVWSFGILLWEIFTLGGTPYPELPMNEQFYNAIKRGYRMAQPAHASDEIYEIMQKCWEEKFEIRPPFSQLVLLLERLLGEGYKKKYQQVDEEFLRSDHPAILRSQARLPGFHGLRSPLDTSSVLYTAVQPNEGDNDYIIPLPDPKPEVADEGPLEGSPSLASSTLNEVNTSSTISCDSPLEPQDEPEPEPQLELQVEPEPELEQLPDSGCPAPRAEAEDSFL
Outline: as §1

[26] = target: T26, PKN3/PRK3 (Homo sapiens, UniProt Q6P5Z2); conditions: 500 nM; relative to DMSO; read-out: Residual enzymatic activity
T26 construct: purchased Reaction Biology Corporation
Outline: as §1

[27] = target: T27, RSK1 (Homo sapiens, UniProt Q15418); conditions: 500 nM; relative to DMSO; read-out: Residual enzymatic activity
T27 construct: purchased Reaction Biology Corporation
Outline: as §1

[28] = target: T28, STK16 (Homo sapiens, UniProt O75716); conditions: 500 nM; relative to DMSO; read-out: Residual enzymatic activity
T28 construct: purchased Reaction Biology Corporation
Outline: as §1

[29] = target: T29, TXK (Homo sapiens, UniProt P42681); conditions: for remaining activity at 0.5 µM: 500 nM, relative to DMSO, read-out: Residual enzymatic activity
T29 construct: purchased Reaction Biology Corporation (Malvern, PA, USA)
T29 sequence (P42681 1-527): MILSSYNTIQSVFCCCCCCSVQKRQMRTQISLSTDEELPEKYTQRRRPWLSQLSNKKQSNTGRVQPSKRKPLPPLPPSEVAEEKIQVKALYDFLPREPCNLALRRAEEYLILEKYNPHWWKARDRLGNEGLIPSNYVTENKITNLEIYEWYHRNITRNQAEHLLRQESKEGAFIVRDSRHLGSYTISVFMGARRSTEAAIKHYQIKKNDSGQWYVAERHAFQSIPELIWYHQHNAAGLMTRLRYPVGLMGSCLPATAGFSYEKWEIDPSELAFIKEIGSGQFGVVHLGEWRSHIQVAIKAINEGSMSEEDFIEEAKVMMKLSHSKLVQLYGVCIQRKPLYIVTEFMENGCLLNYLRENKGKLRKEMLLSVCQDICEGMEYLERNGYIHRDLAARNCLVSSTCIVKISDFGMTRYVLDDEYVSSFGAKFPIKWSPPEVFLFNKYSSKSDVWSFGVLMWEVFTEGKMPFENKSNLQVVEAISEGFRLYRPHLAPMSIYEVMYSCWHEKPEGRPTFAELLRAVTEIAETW
Outline: as §1

[30] = target: T30, VRK1 (Homo sapiens, UniProt Q99986); conditions: 500 nM; relative to DMSO; read-out: Residual enzymatic activity
T30 construct: purchased Reaction Biology Corporation
Outline: as §1

[31] = target: T31, ZAP70 (Homo sapiens, UniProt P43403); conditions: 500 nM; relative to DMSO; read-out: Residual enzymatic activity
T31 construct: purchased Reaction Biology Corporation
Outline: as §1

[32] = target: T32, c-Kit (Homo sapiens, UniProt P10721); conditions: 500 nM, relative to DMSO; for remaining activity at 0.5 µM: read-out: Residual enzymatic activity
T32 construct: purchased Reaction Biology Corporation
T32 sequence (P10721 26-976): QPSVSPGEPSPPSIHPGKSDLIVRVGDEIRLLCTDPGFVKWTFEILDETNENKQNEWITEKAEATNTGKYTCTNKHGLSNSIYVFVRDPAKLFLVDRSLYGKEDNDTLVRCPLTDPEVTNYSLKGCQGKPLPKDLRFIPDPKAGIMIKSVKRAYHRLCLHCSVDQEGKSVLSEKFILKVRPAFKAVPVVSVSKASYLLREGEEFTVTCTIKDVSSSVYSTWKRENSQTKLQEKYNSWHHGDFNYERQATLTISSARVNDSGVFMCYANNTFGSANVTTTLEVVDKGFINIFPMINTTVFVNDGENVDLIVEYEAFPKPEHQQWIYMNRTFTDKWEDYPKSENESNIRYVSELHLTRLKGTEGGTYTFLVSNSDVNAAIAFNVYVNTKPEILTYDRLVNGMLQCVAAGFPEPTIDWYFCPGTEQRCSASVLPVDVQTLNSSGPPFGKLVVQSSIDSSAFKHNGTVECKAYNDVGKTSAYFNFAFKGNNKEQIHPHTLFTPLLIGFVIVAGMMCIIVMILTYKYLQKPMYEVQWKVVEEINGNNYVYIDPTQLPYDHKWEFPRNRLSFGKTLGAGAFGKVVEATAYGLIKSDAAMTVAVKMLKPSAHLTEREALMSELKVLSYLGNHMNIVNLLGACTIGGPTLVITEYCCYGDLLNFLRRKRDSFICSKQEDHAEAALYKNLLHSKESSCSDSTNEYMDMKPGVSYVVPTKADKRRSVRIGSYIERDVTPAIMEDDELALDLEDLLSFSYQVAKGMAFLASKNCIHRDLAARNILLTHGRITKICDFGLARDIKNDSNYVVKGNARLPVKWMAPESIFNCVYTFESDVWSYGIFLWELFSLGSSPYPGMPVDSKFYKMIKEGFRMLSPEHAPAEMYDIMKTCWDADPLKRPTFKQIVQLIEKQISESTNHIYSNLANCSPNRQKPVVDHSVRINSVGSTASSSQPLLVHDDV
Outline: as §1

[33] = 10-dose mode, threefold serial dilution from 10 μM

Structure (SMILES)	remaining activity at 0.5 µM [1]	remaining activity at 0.5 µM [2]	remaining activity at 0.5 µM [3]	remaining activity at 0.5 µM [4]	remaining activity at 0.5 µM [5]	remaining activity at 0.5 µM [7]	remaining activity at 0.5 µM [9]	remaining activity at 0.5 µM [10]	remaining activity at 0.5 µM [11]	remaining activity at 0.5 µM [12]	remaining activity at 0.5 µM [13]	remaining activity at 0.5 µM [14]	remaining activity at 0.5 µM [15]	remaining activity at 0.5 µM [16]	remaining activity at 0.5 µM [17]	remaining activity at 0.5 µM [18]	remaining activity at 0.5 µM [19]	remaining activity at 0.5 µM [20]	remaining activity at 0.5 µM [21]	remaining activity at 0.5 µM [22]	also measured
COc1cc(Nc2ncnc(Nc3cc4c(cn3)NC(=O)C(C)(C)O4)n2)cc(OC)c1OC [MT-SYK-03]	96.5%	90.7%	101%	98%	66%	93.6%	119%	78.8%	40.4%	> 54%	103%	100%	26.3%	103%	112%	75.7%	106%	91.2%	106%	95.9%	remaining activity at 0.5 µM ([6]; 500 nM, relative to DMSO): 96.4%; Residual enzymatic activity [8]: 91.8%; IC50 [11, 33]: 0.0554 µM; Residual enzymatic activity [12]: 56.5%; IC50 [15, 33]: 0.0537 µM; remaining activity at 0.5 µM [23]: 96.5%; remaining activity at 0.5 µM [24]: 46.4%; IC50 [24, 33]: 0.0359 µM; remaining activity at 0.5 µM [25]: 24.5%; IC50 [25, 33]: 0.0045 µM; remaining activity at 0.5 µM [26]: 90%; remaining activity at 0.5 µM [27]: 105%; remaining activity at 0.5 µM [28]: 50.6%; remaining activity at 0.5 µM [29]: 35.4%; IC50 [29, 33]: 0.222 µM; remaining activity at 0.5 µM [30]: 102%; remaining activity at 0.5 µM [31]: 93.4%; Residual enzymatic activity [32]: 69.2%; remaining activity at 0.5 µM [32]: > 54%
COc1cc(Nc2ncc(F)c(Nc3ccc4c(n3)NC(=O)C(C)(C)O4)n2)cc(OC)c1OC [R406, reference compound]	41.2%	59.5%	97.4%	104%	21.4%	43.3%	97.4%	22.9%	4.9%	35%	96.4%	92.7%	15.4%	94.9%	92.9%	37.4%	56.8%	61.5%	97.3%	62.3%	remaining activity at 0.5 µM [6]: 57.5%; remaining activity at 0.5 µM ([8]; read-out: Residual enzymatic activity): 85.6%; remaining activity at 0.5 µM [23]: 81.2%; remaining activity at 0.5 µM [24]: 10.5%; remaining activity at 0.5 µM [25]: 6.1%; remaining activity at 0.5 µM [26]: 40.8%; remaining activity at 0.5 µM [27]: 66.9%; remaining activity at 0.5 µM [28]: 6.3%; remaining activity at 0.5 µM [29]: 16.3%; remaining activity at 0.5 µM [30]: 98.8%; remaining activity at 0.5 µM [31]: 43.5%; remaining activity at 0.5 µM [32]: 37.1%
